These results are taken from patent US20160287554A1, “Small Molecule Metal-Activated Protein Inhibition” (University of South Florida, priority 2015, published 2016).

For orientation: EC50 means the midpoint of the concentration-response curve. As a reminder, the IC50 is the concentration that inhibits the measured activity by half.

“And” between values parts separate entries of the source, which are not always exact repeats. Equal values may be shown once.

For this assay, the target named is 20S proteasome (Homo sapiens, UniProt P28074). The assay is described as follows: 20S proteasome chymotrypsin-like activity assay, cleavage of suc-leu-leu-val-tyr-AMC (fluorescence), with or without copper chloride. The settings on record: for inhibition against the proteasome: one-dose experiments, 10 μM compound in the presence of 1 μM copper. It is filed as biochemical. From the text: Pro-drug compounds, according to embodiments of the invention, include: 3,4-dihydroxybenzoic acid; galloflavin; 2-{[(carbamoylsulfanyl)acetyl]amino}benzoic acid; 6,7-Dihydroxycoumaranone; 3,6-bis(hydroxymethyl)pyridazin-4(1H)-one; and 4′,5,7-trihydroxyisoflavone, as shown in FIG. 1. These compounds, and analogs thereof, can act individually or can be used in combination. These compounds, and similar compounds, are capable of binding copper ions and facilitating inhibition of the proteasome. These compounds, and similar compounds, are safe and efficacious theranostics and/or drugs to detect and/or treat cancers. These compounds are from the NCI Diversity Set 3. Preliminary identification of these compounds as potential Cu-complexes with the proteasome was conducted using an in silico screening method, according to an embodiment of the invention, for example, with graphic representations of the calculated docking of the pro-drugs of FIG. 1 with copper ion and the proteasome, as shown in FIGS. 2-7. The modeling method indicates the potential of candidates as the pro-drugs, which are tested experimentally to confirm their efficiency using an in vitro experimental assay that tests for inhibition of the chymotrypsin-like activity of the 20S proteasome.
A Beckman Coulter Biomek FX^P Lab Automation Workstation was used for automating the assays. A Perkin Elmer EnVision 2102 multilabel plate reader was used to read the plates by fluorescence measurements. Assays were performed in 384 well black Nunc plates. Each compound (2 μl in DMSO), when tested without copper chloride was added to 28 μl of buffer (50 mM Tris at pH 7.6 and 37° C.), with 20 μM, 10 μl 20S proteasome and 10 μl of suc-leu-leu-val-tyr-AMC as the substrate (purchased from Boston Biochem), and the rate of substrate cleavage by 20S proteasome activity was determined. In the presence of copper, the buffer amount was decreased to 25 μl and 3 μl copper chloride was used for chelation with the compound for testing in the presence of copper. To allow chelation of copper to the compound, the plate was allowed to sit for 40 minutes with gentle shaking. The overall volume per well was held at 50 μL. The compounds and substrate were initially dissolved in 100% DMSO, but the final concentration of DMSO per well plate was reduced to less than 2% following subsequent dilutions. Plates were incubated at 37° C. for 2 hours. For dose response curves, the concentrations of copper chloride and a pro-drug compound, were varied to get optimal activity. The plates were read with 340 nm excitation and 460 nm emission using the plate reader. All liquid transfers to the plates were automated using the Biomek workstation.

Setting [1] is: CuCl2 0.01 uM alone (NSC 37408 0 uM).
Setting [2] is: CuCl2 0.05 uM alone (NSC 37408 0 uM).
Setting [3] is: CuCl2 0.1 uM alone (NSC 37408 0 uM).
Where [4] appears, read: CuCl2 0.5 uM alone (NSC 37408 0 uM).
[5] abbreviates: CuCl2 1 uM alone (NSC 37408 0 uM).
Where [6] appears, read: CuCl2 10 uM alone (NSC 37408 0 uM).
Where [7] appears, read: NSC 37408 0.01 uM, CuCl2 0.01 uM.
[8] abbreviates: NSC 37408 0.01 uM, CuCl2 0.05 uM.
Setting [9] is: NSC 37408 0.01 uM, CuCl2 0.1 uM.
[10] abbreviates: NSC 37408 0.01 uM, CuCl2 0.5 uM.
[11] abbreviates: NSC 37408 0.02 uM, CuCl2 0.01 uM.
The mark [12] stands for this setting: NSC 37408 0.02 uM, CuCl2 0.05 uM.
[13] abbreviates: NSC 37408 0.02 uM, CuCl2 0.1 uM.
[14] abbreviates: NSC 37408 0.02 uM, CuCl2 0.5 uM.
Setting [15] is: NSC 37408 0.2 uM, CuCl2 0.01 uM.
The mark [16] stands for this setting: NSC 37408 0.2 uM, CuCl2 0.05 uM.

On to `[Cl][Cu][Cl]` [CuCl2, copper chloride, reference compound], for which the “% Activity” value is 116.1267% and 79.27% under setting [1]; 92.35% and 88.54% under setting [2]; 82.9012% and 74.33% under setting [3]; 50.13% and 54.8853% under setting [4]; 65.79% and 56.9% under setting [5]; 21.19% and 16.25% under setting [6]. The Average % inhibition by setting is: under setting [1], 2.302%; under setting [2], 9.555%; under setting [3], 21.39%; under setting [4], 47.49%; under setting [5], 38.65%; under setting [6], 81.28%. Under “copper chloride alone, dose response (FIG. 11), read-out: EC50 of inhibitory effect on the % activity of the proteasome”, the EC50 worked out at 686 nM. In addition, the “inhibitory activity of copper absent the pro-drug” value (sub-micromolar copper concentration (FIG. 13)) was “no significant inhibitory activity”.

As for `NC(=O)SCC(=O)Nc1ccccc1C(=O)O` [compound 13345, 2-{[(carbamoylsulfanyl)acetyl]amino}benzoic acid], the “inhibition against the proteasome” value was “superior inhibition”.

Turning to `O=c1oc2c(cc1O)oc(=O)c1cc(O)c(O)c(O)c12` [compound 107022, galloflavin], the “inhibition against the proteasome” value is reported as “superior inhibition”.

Turning to `O=c1cc(CO)[nH]nc1CO` [compound 166900, 3,6-bis(hydroxymethyl)pyridazin-4(1H)-one], the “inhibition against the proteasome” value is on record as “superior inhibition”.

6,7-dihydroxycoumaranone [NSC 37408]: the “inhibition against the proteasome” value is listed as “superior inhibition”. Also, under “NSC 37408 0.01 uM, CuCl2 0 uM”, the “% Activity” value is 112.6213% and 99.65%; the Average % inhibition is listed as −6.135%. Also, under setting [7], the “% Activity” value is 90.87% and 88.81%; the Average % inhibition worked out at 10.1605%. For the same molecule, under setting [8], the “% Activity” value is 86.05% and 85.2009%; the Average % inhibition was 14.38%. Also, under setting [9], the “% Activity” value was 72.84% and 76.28%; the Average % inhibition was 25.44%. Under setting [10], the “% Activity” value was 54.66% and 61.76%; the Average % inhibition is 41.79%. For the same molecule, under “NSC 37408 0.01 uM, CuCl2 1 uM”, the “% Activity” value is 44.58% and 55.7695%; the Average % inhibition is 49.82%. In addition, for the setting “NSC 37408 0.01 uM, CuCl2 10 uM”, the “% Activity” value is 19.49% and 20.5%; the Average % inhibition was 80.0042%. For the same molecule, for the setting “NSC 37408 0.02 uM, CuCl2 0 uM”, the “% Activity” value is 96.06% and 94.02%; the Average % inhibition was found to be 4.963%. Under setting [11], the “% Activity” value was 88.1% and 90.5198%; the Average % inhibition came to 10.69%. Moreover, under setting [12], the “% Activity” value was 68.1% and 55.31%; the Average % inhibition is recorded as 38.29%. Further, under setting [13], the “% Activity” value is 65.88% and 61.48%; the Average % inhibition stood at 36.32%. In addition, under setting [14], the “% Activity” value was 51.0064% and 59.2161%; the Average % inhibition stood at 44.89%. For the same molecule, under “NSC 37408 0.02 uM, CuCl2 1 uM”, the “% Activity” value was 56.05% and 43.65%; the Average % inhibition is 50.1481%. Moreover, under “NSC 37408 0.02 uM, CuCl2 10 uM”, the “% Activity” value is 17.83% and 17.5873%; the Average % inhibition is listed as 82.29%. Also, where the note is “NSC 37408 0.2 uM, CuCl2 0 uM”, the “% Activity” value is 105.3933% and 82.75%; the Average % inhibition was 5.927%. Under setting [15], the “% Activity” value was 94.36% and 76.52%; the Average % inhibition was found to be 14.5582%. In addition, under setting [16], the “% Activity” value is 85.2901% and 82.94%; the Average % inhibition came out at 15.89%. Under “NSC 37408 0.2 uM, CuCl2 0.1 uM”, the “% Activity” value is 73.85% and 60.05%; the Average % inhibition came out at 33.05%. Under “NSC 37408 0.2 uM, CuCl2 0.5 uM”, the “% Activity” value is 64.18% and 61.99%; the Average % inhibition came out at 36.91%. Where the note is “NSC 37408 0.2 uM, CuCl2 1 uM”, the “% Activity” value was 56.85% and 54.95%; the Average % inhibition came out at 44.1%. In addition, under “NSC 37408 0.2 uM, CuCl2 10 uM”, the “% Activity” value was 19.46% and 18.13%; the Average % inhibition amounted to 81.2011%. For the same molecule, for the setting “NSC 37408 1 uM, CuCl2 0 uM”, the “% Activity” value is 103.1804% and 90.54%; the Average % inhibition stood at 3.138%. Where the note is “NSC 37408 1 uM, CuCl2 0.01 uM”, the “% Activity” value is 72.59% and 75.01%; the Average % inhibition was 26.2%. For the same molecule, where the note is “NSC 37408 1 uM, CuCl2 0.05 uM”, the “% Activity” value was 66.45% and 67.81%; the Average % inhibition was 32.87%. For the same molecule, for the setting “NSC 37408 1 uM, CuCl2 0.1 uM”, the “% Activity” value was 65.45% and 59.72%; the Average % inhibition is 37.4167%. For the setting “NSC 37408 1 uM, CuCl2 0.5 uM”, the “% Activity” value is 56.12% and 54.11%; the Average % inhibition was 44.88%. Further, for the setting “NSC 37408 1 uM, CuCl2 1 uM”, the “% Activity” value was 57.76% and 41.6248%; the Average % inhibition was determined as 50.31%. For the setting “NSC 37408 1 uM, CuCl2 10 uM”, the “% Activity” value was 14.11% and 16.23%; the Average % inhibition worked out at 84.83%. For the setting “NSC 37408 2 uM, CuCl2 0 uM”, the “% Activity” value is 97.24% and 74.12%; the Average % inhibition was 14.32%. Also, where the note is “NSC 37408 2 uM, CuCl2 0.01 uM”, the “% Activity” value was 87.55% and 75.89%; the Average % inhibition was 18.28%. For the same molecule, for the setting “NSC 37408 2 uM, CuCl2 0.05 uM”, the “% Activity” value was 61.5% and 61.91%; the Average % inhibition is listed as 38.3%. Under “NSC 37408 2 uM, CuCl2 0.1 uM”, the “% Activity” value was 62.98% and 55.45%; the Average % inhibition stood at 40.79%. For the same molecule, for the setting “NSC 37408 2 uM, CuCl2 0.5 uM”, the “% Activity” value was 50.79% and 47.45%; the Average % inhibition came to 50.8784%. Besides, for the setting “NSC 37408 2 uM, CuCl2 1 uM”, the “% Activity” value was 41.16% and 35.42%; the Average % inhibition stood at 61.71%. For the setting “NSC 37408 2 uM, CuCl2 10 uM”, the “% Activity” value was 15.32% and 15.04%; the Average % inhibition is given as 84.82%. In addition, under “NSC 37408 20 uM, CuCl2 0 uM”, the “% Activity” value is 99.79% and 91.1158%; the Average % inhibition was 4.548%. Under “NSC 37408 20 uM, CuCl2 0.01 uM”, the “% Activity” value is 71.91% and 89.68%; the Average % inhibition stood at 19.21%. Further, for the setting “NSC 37408 20 uM, CuCl2 0.05 uM”, the “% Activity” value was 54.92% and 76.06%; the Average % inhibition is reported as 34.51%. Besides, under “NSC 37408 20 uM, CuCl2 0.1 uM”, the “% Activity” value was 49.04% and 30.46%; the Average % inhibition stood at 60.25%. Further, under “NSC 37408 20 uM, CuCl2 0.5 uM”, the “% Activity” value is 36.6% and 25.36%; the Average % inhibition is given as 69.02%. Moreover, where the note is “NSC 37408 20 uM, CuCl2 1 uM”, the “% Activity” value is 25.4789% and 22.77%; the Average % inhibition is given as 75.88%. In addition, under “NSC 37408 20 uM, CuCl2 10 uM”, the “% Activity” value was 7.426% and 7.089%; the Average % inhibition was 92.74%. The IC50 (dose-response assay, in presence of 100 nM copper (FIG. 13)) is 3000 nM. The “capacity to inhibit the proteasome compared with copper chloride alone” value (first round of screening (Table 1), compound complexed with copper) is recorded as “better capacity to inhibit the proteasome than copper chloride alone”. Under “sub-micromolar copper, triplicate (FIG. 13)”, the “percent inhibition in the presence of copper versus compound alone” value is recorded as “dramatic improvement of percent inhibition”. Also, under “various concentrations, no copper (FIG. 10)”, the “inhibition in the absence of copper ion” value is “little if any inhibition”.
